In US20250009689A1, “GASTRO-RETENTIVE ORAL DOSAGE UNIT CONTAINING A LOCAL ANAESTHETIC” (OREXA B.V., priority 2021, published 2025):
Marks after values point to notes of the source that are not given here.

Experiments:
[1] = tested on: fundus strips (stomach muscularis); experiment: Fundus strip length after acetylcholine-induced contraction; parameters: species or system domestic pigs; details: for Strip length (as percentage of baseline): 70 mg/L + acetylcholine 10^-4 M, 37° C.
Protocol: Within the gastro-intestinal tract, local circuits play a role in the regulation of food intake and transport. Mechanical extension of the stomach as a result of food intake activates stretch receptors (neurons) which in turn induces satiety signals. The pharmacology of stretch receptors can be analyzed in fundus strip preparations. Fresh stomach tissue (0-1 h after slaughter) was collected from routinely slaughtered domestic pigs. The fundus region of the stomach was removed and washed with cold saline (0.9% NaCl) solution. Tissue was submerged in clean cold saline and transported to the laboratory (transport time 30 min.). The mucosa and submucosa were removed from the muscularis (muscle layer). The muscularis was cut along the longitudinal muscle fibres in strips of approximately 1 by 5 cm. The strips were incubated for 15 min in a 37° C. saline solution. Thereafter, fundus strips were placed vertically in a transparent container, kept at 37° C. Stretching was ensured by a 5 g weight at the bottom of the strip. Test solutions were added into the container. Acetylcholine (10^−4M) exposure was used to induce a contraction of the fundus tissue. Pictures were taken at 0, 5, 10, 15, 30, 45 and 60 minutes after the start of the experiment with a digital camera. The length of the strips was measured by a blinded assessor (unknowing of the treatment) using Photoshop software (Adobe).

[2] = tested on: fundus strips (stomach muscularis); experiment: Acid sensitivity of lidocaine: acetic acid pre-exposure, then fundus strip experiment; parameters: species or system domestic pigs
Protocol: Fresh stomach tissue (0-1 h after slaughter) was collected from routinely slaughtered domestic pigs. The fundus region of the stomach was removed and washed with cold saline (0.9% NaCl) solution. Tissue was submerged in clean cold saline and transported to the laboratory (transport time 30 min.).
The mucosa and submucosa were removed from the muscularis (muscle layer). The muscularis was cut along the longitudinal muscle fibres in strips of approximately 1 by 5 cm. The strips were incubated for 15 min in a 37° C. saline solution.
Thereafter, fundus strips were placed vertically in a transparent container, kept at 37° C. Stretching was ensured by a 5 g weight at the bottom of the strip. Test solutions were added into the container. Acetylcholine (10^−4M) exposure was used to induce a contraction of the fundus tissue. Pictures were taken at 0, 5, 10, 15, 30, 45 and 60 minutes after the start of the experiment with a digital camera. The length of the strips was measured by a blinded assessor (unknowing of the treatment) using Photoshop software (Adobe). Values were expressed as percentage of baseline (t=0 min).
The acid sensitivity of lidocaine was determined by exposing lidocaine to acetic acid (pH 2.5) for 1, 5 and 15 minutes before carrying out experiments on fundus strips, as in Example 5.

SMILES: CCOC(=O)c1ccc(N)cc1 [Benzocaine, benzocaine]
- Strip length (as percentage of baseline) ([1]; time 0 min (baseline)): 100 percentage of baseline
- Strip length (as percentage of baseline) ([1]; time 5 min): 102.7* percentage of baseline
- Strip length (as percentage of baseline) ([1]; time 10 min): 102.3* percentage of baseline
- Strip length (as percentage of baseline) ([1]; time 15 min): 102.4** percentage of baseline
- Strip length (as percentage of baseline) ([1]; time 30 min): 101.5* percentage of baseline
- Strip length (as percentage of baseline) ([1]; time 45 min): 101.3** percentage of baseline
- Strip length (as percentage of baseline) ([1]; time 60 min): 101.3** percentage of baseline

SMILES: CCCCN1CCCCC1C(=O)Nc1c(C)cccc1C (centres unmarked) [Bupivacaine, bupivacaine]
- Strip length (as percentage of baseline) ([1]; time 0 min (baseline)): 100 percentage of baseline
- Strip length (as percentage of baseline) ([1]; time 5 min): 106.4*** percentage of baseline
- Strip length (as percentage of baseline) ([1]; time 10 min): 107.1*** percentage of baseline
- Strip length (as percentage of baseline) ([1]; time 15 min): 107.0*** percentage of baseline
- Strip length (as percentage of baseline) ([1]; time 30 min): 106.8*** percentage of baseline
- Strip length (as percentage of baseline) ([1]; time 45 min): 104.9*** percentage of baseline
- Strip length (as percentage of baseline) ([1]; time 60 min): 101.9*** percentage of baseline

SMILES: CCN(CC)CC(=O)Nc1c(C)cccc1C [Lidocaine, lidocaine]
- Strip length (as percentage of baseline) ([1]; time 0 min (baseline)): 100 percentage of baseline
- Strip length (as percentage of baseline) ([1]; time 5 min): 105.7** percentage of baseline
- Strip length (as percentage of baseline) ([1]; time 10 min): 103.6* percentage of baseline
- Strip length (as percentage of baseline) ([1]; time 15 min): 101.8* percentage of baseline
- Strip length (as percentage of baseline) ([1]; time 30 min): 99.5 percentage of baseline
- Strip length (as percentage of baseline) ([1]; time 45 min): 98.7 percentage of baseline
- Strip length (as percentage of baseline) ([1]; time 60 min): 98.0* percentage of baseline
- Effect on contraction induced by acetylcholine ([1]; lidocaine 70 mg/L, conclusion in words): reversed
- Acid sensitivity (activity after exposure to low pH) ([2]; acetic acid pH 2.5, conclusion in words): inactivated at low pH
- Activity on acetylcholine induced contraction after shortest acid exposure ([2]; acid exposure time 1 min, conclusion in words): remains active
- Strip length (percentage of baseline) ([2]; lidocaine exposed 1 min. to acetic acid pH 2.5, time 0 min (baseline)): 100 percentage of baseline
- Strip length (percentage of baseline) ([2]; lidocaine exposed 1 min. to acetic acid pH 2.5, time 5 min): 114.9 percentage of baseline
- Strip length (percentage of baseline) ([2]; lidocaine exposed 1 min. to acetic acid pH 2.5, time 10 min): 115.8 percentage of baseline
- Strip length (percentage of baseline) ([2]; lidocaine exposed 1 min. to acetic acid pH 2.5, time 15 min): 116.7 percentage of baseline
- Strip length (percentage of baseline) ([2]; lidocaine exposed 1 min. to acetic acid pH 2.5, time 30 min): 116.2* percentage of baseline
- Strip length (percentage of baseline) ([2]; lidocaine exposed 1 min. to acetic acid pH 2.5, time 45 min): 115.0* percentage of baseline
- Strip length (percentage of baseline) ([2]; lidocaine exposed 1 min. to acetic acid pH 2.5, time 60 min): 113.6* percentage of baseline
- Strip length (percentage of baseline) ([2]; lidocaine exposed 5 min. to acetic acid pH 2.5, time 0 min (baseline)): 100 percentage of baseline
- Strip length (percentage of baseline) ([2]; lidocaine exposed 5 min. to acetic acid pH 2.5, time 5 min): 108.9 percentage of baseline
- Strip length (percentage of baseline) ([2]; lidocaine exposed 5 min. to acetic acid pH 2.5, time 10 min): 108.3 percentage of baseline
- Strip length (percentage of baseline) ([2]; lidocaine exposed 5 min. to acetic acid pH 2.5, time 15 min): 108.0 percentage of baseline
- Strip length (percentage of baseline) ([2]; lidocaine exposed 5 min. to acetic acid pH 2.5, time 30 min): 108.0 percentage of baseline
- Strip length (percentage of baseline) ([2]; lidocaine exposed 5 min. to acetic acid pH 2.5, time 45 min): 106.8 percentage of baseline
- Strip length (percentage of baseline) ([2]; lidocaine exposed 5 min. to acetic acid pH 2.5, time 60 min): 104.9 percentage of baseline
- Strip length (percentage of baseline) ([2]; lidocaine exposed 15 min. to acetic acid pH 2.5, time 0 min (baseline)): 100 percentage of baseline
- Strip length (percentage of baseline) ([2]; lidocaine exposed 15 min. to acetic acid pH 2.5, time 5 min): 106.3 percentage of baseline
- Strip length (percentage of baseline) ([2]; lidocaine exposed 15 min. to acetic acid pH 2.5, time 10 min): 105.9 percentage of baseline
- Strip length (percentage of baseline) ([2]; lidocaine exposed 15 min. to acetic acid pH 2.5, time 15 min): 105.2 percentage of baseline
- Strip length (percentage of baseline) ([2]; lidocaine exposed 15 min. to acetic acid pH 2.5, time 30 min): 102.4 percentage of baseline
- Strip length (percentage of baseline) ([2]; lidocaine exposed 15 min. to acetic acid pH 2.5, time 45 min): 97.6 percentage of baseline
- Strip length (percentage of baseline) ([2]; lidocaine exposed 15 min. to acetic acid pH 2.5, time 60 min): 93.8 percentage of baseline

SMILES: CN(C(=O)CN(CCO)CC(=O)N(C)C(C)(C)Cc1ccccc1)C(C)(C)Cc1ccccc1 [Oxethazaine]
- Strip length (as percentage of baseline) ([1]; time 0 min (baseline)): 100 percentage of baseline
- Strip length (as percentage of baseline) ([1]; time 5 min): 104.5 percentage of baseline
- Strip length (as percentage of baseline) ([1]; time 10 min): 104.8* percentage of baseline
- Strip length (as percentage of baseline) ([1]; time 15 min): 104.3* percentage of baseline
- Strip length (as percentage of baseline) ([1]; time 30 min): 101.3 percentage of baseline
- Strip length (as percentage of baseline) ([1]; time 45 min): 98.2 percentage of baseline
- Strip length (as percentage of baseline) ([1]; time 60 min): 94.6 percentage of baseline

SMILES: CCCNC(C)C(=O)Nc1ccccc1C (centres unmarked) [Prilocaine, prilocaine]
- Strip length (as percentage of baseline) ([1]; time 0 min (baseline)): 100 percentage of baseline
- Strip length (as percentage of baseline) ([1]; time 5 min): 105.1* percentage of baseline
- Strip length (as percentage of baseline) ([1]; time 10 min): 105.8** percentage of baseline
- Strip length (as percentage of baseline) ([1]; time 15 min): 106.2** percentage of baseline
- Strip length (as percentage of baseline) ([1]; time 30 min): 106.3** percentage of baseline
- Strip length (as percentage of baseline) ([1]; time 45 min): 104.1* percentage of baseline
- Strip length (as percentage of baseline) ([1]; time 60 min): 100.2* percentage of baseline
